Values after ≈ are worked out from the molar mass of the structure shown. Non-standard residues stand in square brackets, D forms with d. Residues, ends and D or L forms follow the SMILES beside them. Phe(3,4-Cl2) = N[C@@H](Cc1ccc(Cl)c(Cl)c1)C(=O)O; Phe(4-CF3) = N[C@@H](Cc1ccc(C(F)(F)F)cc1)C(=O)O; Phe(3,4-F2) = N[C@@H](Cc1ccc(F)c(F)c1)C(=O)O; Phe(4-Br) = N[C@@H](Cc1ccc(Br)cc1)C(=O)O; Phe(4-F) = N[C@@H](Cc1ccc(F)cc1)C(=O)O; Phe(4-Me) = Cc1ccc(C[C@H](N)C(=O)O)cc1; 2Nal = N[C@@H](Cc1ccc2ccccc2c1)C(=O)O; hLeu = CC(C)CC[C@H](N)C(=O)O; Nle = CCCC[C@H](N)C(=O)O
Columns and labels:
rabbit red blood cells = type: cell-based; conditions: red cells of rabbit, 1 h
Method: Fresh rabbit blood ([…]) was collected and centrifuged at 500 g for 5 min, a supernatant was discarded, and red blood cells were repeatedly washed with phosphate-buffered saline (PBS, 0.01 M, pH 7.4) until the supernatant was clear. The red blood cells (RBCs) were resuspended to 10 mL, and diluted 25-fold with PBS (0.01 M, pH 7.4) to prepare a red blood cell suspension with a concentration of about 2×10^8 RBC/mL. The AMPs were subjected to gradient dilution with normal saline (0.85%, w/v, NaCl) according to a multiple dilution method, final concentrations of the SMPs were 1.95, 3.9, 7.8, 15.6, 31.3, 62.5, 125, 250, 500, 1000, and 2000 μg/mL. 100 μl of polypeptide solution was taken and added to a 96-well plate with 5 replicates for each concentration; 100 μl of rabbit blood with a red blood cell count of about 2×10^8 RBC/mL was then added to each well, the plate was incubated at 37° C. for 1 h, centrifuged at 500 g for 5 min, 100 μl of supernatant was taken and transferred to a new 96-well plate, and an optical density (OD) at a wavelength of 541 nm was measured using a microplate reader. Triton X-100 (10 mg/mL as a starting concentration, two-fold gradient dilution) was used as a positive control group. A hemolysis rate was calculated using the following formula: Hemolysis rate (%)=[(OD541 of experimental group-OD541 of negative control group)/(OD541 of positive control group−OD541 of negative control group)]×100% Specific results of the hemolysis test are shown in Table 6. Minimum hemolytic concentration (MHC): a lowest drug concentration that can cause 10% hemolysis.

[1] = tested on: Staphylococcus aureus (NRS 384); experiment: microbe, parasite or virus in culture; type: cell-based; conditions: NRS 384
Excerpt: According to the Standards of Clinical and Laboratory Standards Institute (CLSI) of the USA for antimicrobial drug susceptibility test operation standards, a micronutrient serial twofold dilution method was used to determine minimum inhibitory concentrations (MICs) of all 60 peptides (S/N: LV-1˜LV-60) against Staphylococcus aureus (NRS 384). The experiment was repeated 5 times in parallel. […] An antibacterial drug Levofloxacin and an AMP Cbf-K16 (sequence of Cbf-K16: […]) were used as positive controls to evaluate the antibacterial effect of the antimicrobial peptides on Staphylococcus aureus (NRS 384).

Row | Compound | MHC (minimum hemolytic concentration, lowest concentration causing 10% hemolysis) (rabbit red blood cells) | MIC against Staphylococcus aureus (NRS 384) [1]
1 | CC(=O)N[C@@H](CCCNC(=N)N)C(=O)N[C@@H](CCCCN)C(=O)N[C@@H](CC(C)C)C(=O)N[C@@H](CC(C)C)C(=O)N[C@@H](Cc1ccc2ccccc2c1)C(=O)N[C@@H](CCCNC(=N)N)C(=O)N[C@@H](CC(C)C)C(=O)N[C@@H](CCCCN)C(=O)N[C@@H](Cc1ccc2ccccc2c1)C(=O)N[C@@H](CCCNC(=N)N)C(=O)N[C@@H](CCCNC(=N)N)C(N)=O [LV-52] (Ac-RKLL[2Nal]RLK[2Nal]RR-NH2) | >1000 µg/mL | 8 µg/mL (≈ 4.78 µM)
2 | CC(=O)N[C@@H](CCCNC(=N)N)C(=O)N[C@@H](CCCCN)C(=O)N[C@@H](C)C(=O)N[C@@H](C)C(=O)N[C@@H](Cc1ccc2ccccc2c1)C(=O)N[C@@H](CCCNC(=N)N)C(=O)N[C@@H](C)C(=O)N[C@@H](CCCCN)C(=O)N[C@@H](Cc1ccc2ccccc2c1)C(=O)N[C@@H](CCCNC(=N)N)C(=O)N[C@@H](CCCCN)C(N)=O [LV-45] (Ac-RKAA[2Nal]RAK[2Nal]RK-NH2) | >1000 µg/mL | 2 µg/mL (≈ 1.32 µM)
3 | CC(=O)N[C@@H](CCCNC(=N)N)C(=O)N[C@@H](CCCCN)C(=O)N[C@@H](CC(C)C)C(=O)N[C@@H](CC(C)C)C(=O)N[C@@H](Cc1ccc(F)c(F)c1)C(=O)N[C@@H](CCCCN)C(=O)N[C@@H](CC(C)C)C(=O)N[C@@H](CCCCN)C(=O)N[C@@H](Cc1ccc(F)c(F)c1)C(=O)N[C@@H](CCCCN)C(=O)N[C@@H](CCCNC(=N)N)C(N)=O [LV-36] (Ac-RKLL[Phe(3,4-F2)]KLK[Phe(3,4-F2)]KR-NH2) | >1000 µg/mL | 4 µg/mL (≈ 2.52 µM)
4 | CCCC[C@H](NC(=O)[C@H](CCCCN)NC(=O)[C@H](CCCNC(=N)N)NC(C)=O)C(=O)N[C@@H](CCCC)C(=O)N[C@@H](Cc1ccc2ccccc2c1)C(=O)N[C@@H](CCCNC(=N)N)C(=O)N[C@@H](CCCC)C(=O)N[C@@H](CCCCN)C(=O)N[C@@H](Cc1ccc2ccccc2c1)C(=O)N[C@@H](CCCNC(=N)N)C(=O)N[C@@H](CCCCN)C(N)=O [LV-42] (Ac-RK[Nle][Nle][2Nal]R[Nle]K[2Nal]RK-NH2) | >1000 µg/mL | 8 µg/mL (≈ 4.86 µM)
5 | CC(=O)N[C@@H](CCCCN)C(=O)N[C@@H](CCCNC(=N)N)C(=O)N[C@@H](CC(C)C)C(=O)N[C@@H](CC(C)C)C(=O)N[C@@H](Cc1ccc2ccccc2c1)C(=O)N[C@@H](CCCCN)C(=O)N[C@@H](CC(C)C)C(=O)N[C@@H](CCCCN)C(=O)N[C@@H](Cc1ccc2ccccc2c1)C(=O)N[C@@H](CCCCN)C(=O)N[C@@H](CCCNC(=N)N)C(N)=O [LV-53] (Ac-KRLL[2Nal]KLK[2Nal]KR-NH2) | >1000 µg/mL | 4 µg/mL (≈ 2.47 µM)
6 | CC(=O)N[C@@H](CCCNC(=N)N)C(=O)N[C@@H](CCCNC(=N)N)C(=O)N[C@@H](CC(C)C)C(=O)N[C@@H](CC(C)C)C(=O)N[C@@H](Cc1ccc2ccccc2c1)C(=O)N[C@@H](CCCNC(=N)N)C(=O)N[C@@H](CC(C)C)C(=O)N[C@@H](CCCNC(=N)N)C(=O)N[C@@H](Cc1ccc2ccccc2c1)C(=O)N[C@@H](CCCNC(=N)N)C(=O)N[C@@H](CCCNC(=N)N)C(N)=O [LV-31] (Ac-RRLL[2Nal]RLR[2Nal]RR-NH2) | >1000 µg/mL | 4 µg/mL (≈ 2.31 µM)
7 | CC(=O)N[C@@H](CCCNC(=N)N)C(=O)N[C@@H](CCCCN)C(=O)N[C@@H](CC(C)C)C(=O)N[C@@H](CC(C)C)C(=O)N[C@@H](Cc1ccc(Cl)c(Cl)c1)C(=O)N[C@@H](CCCCN)C(=O)N[C@@H](CC(C)C)C(=O)N[C@@H](CCCCN)C(=O)N[C@@H](Cc1ccc(Cl)c(Cl)c1)C(=O)N[C@@H](CCCCN)C(=O)N[C@@H](CCCNC(=N)N)C(N)=O [LV-38] (Ac-RKLL[Phe(3,4-Cl2)]KLK[Phe(3,4-Cl2)]KR-NH2) | >1000 µg/mL | 8 µg/mL (≈ 4.83 µM)
8 | CC(=O)N[C@@H](CCCNC(=N)N)C(=O)N[C@@H](CCCCN)C(=O)N[C@@H](CC(C)C)C(=O)N[C@@H](CC(C)C)C(=O)N[C@@H](Cc1ccc2ccccc2c1)C(=O)N[C@@H](CCCCN)C(=O)N[C@@H](CC(C)C)C(=O)N[C@@H](CCCCN)C(=O)N[C@@H](Cc1ccc2ccccc2c1)C(=O)N[C@@H](CCCCN)C(=O)N[C@@H](CCCNC(=N)N)C(N)=O [LV-48] (Ac-RKLL[2Nal]KLK[2Nal]KR-NH2) | >1000 µg/mL | 4 µg/mL (≈ 2.47 µM)
9 | CC(=O)N[C@@H](CCCCN)C(=O)N[C@@H](CCCCN)C(=O)N[C@@H](CC(C)C)C(=O)N[C@@H](CC(C)C)C(=O)N[C@@H](Cc1ccc(Br)cc1)C(=O)N[C@@H](CCCNC(=N)N)C(=O)N[C@@H](CC(C)C)C(=O)N[C@@H](CCCCN)C(=O)N[C@@H](Cc1ccc(Br)cc1)C(=O)N[C@@H](CCCNC(=N)N)C(=O)N[C@@H](CCCCN)C(N)=O [LV-40] (Ac-KKLL[Phe(4-Br)]RLK[Phe(4-Br)]RK-NH2) | >1000 µg/mL | 4 µg/mL (≈ 2.39 µM)
10 | CC(=O)N[C@@H](CCCNC(=N)N)C(=O)N[C@@H](CCCCN)C(=O)N[C@@H](CC(C)C)C(=O)N[C@@H](CC(C)C)C(=O)N[C@@H](Cc1ccc(F)cc1)C(=O)N[C@@H](CCCCN)C(=O)N[C@@H](CC(C)C)C(=O)N[C@@H](CCCCN)C(=O)N[C@@H](Cc1ccc(F)cc1)C(=O)N[C@@H](CCCCN)C(=O)N[C@@H](CCCNC(=N)N)C(N)=O [LV-35] (Ac-RKLL[Phe(4-F)]KLK[Phe(4-F)]KR-NH2) | >1000 µg/mL | 8 µg/mL (≈ 5.15 µM)
11 | CC(=O)N[C@@H](CCCNC(=N)N)C(=O)N[C@@H](CCCCN)C(=O)N[C@@H](CCC(C)C)C(=O)N[C@@H](CCC(C)C)C(=O)N[C@@H](Cc1ccc2ccccc2c1)C(=O)N[C@@H](CCCNC(=N)N)C(=O)N[C@@H](CCC(C)C)C(=O)N[C@@H](CCCCN)C(=O)N[C@@H](Cc1ccc2ccccc2c1)C(=O)N[C@@H](CCCNC(=N)N)C(=O)N[C@@H](CCCCN)C(N)=O [LV-44] (Ac-RK[hLeu][hLeu][2Nal]R[hLeu]K[2Nal]RK-NH2) | >1000 µg/mL | 8 µg/mL (≈ 4.74 µM)
12 | CC(=O)N[C@@H](CCCNC(=N)N)C(=O)N[C@@H](CCCCN)C(=O)N[C@@H](CC(C)C)C(=O)N[C@@H](CC(C)C)C(=O)N[C@@H](Cc1ccc2ccccc2c1)C(=O)N[C@@H](CCCNC(=N)N)C(=O)N[C@@H](CC(C)C)C(=O)N[C@@H](CCCCN)C(=O)N[C@@H](Cc1ccc2ccccc2c1)C(=O)N[C@@H](CCCNC(=N)N)C(=O)N[C@@H](CCCCN)C(N)=O [LV-50] (Ac-RKLL[2Nal]RLK[2Nal]RK-NH2) | >1000 µg/mL | 4 µg/mL (≈ 2.43 µM)
13 | Ac-RKLLFRLKFRK-NH2 [LV-32] | >1000 µg/mL | 4 µg/mL
14 | CC(=O)N[C@@H](CCCNC(=N)N)C(=O)N[C@@H](CCCCN)C(=O)N[C@@H](CC(C)C)C(=O)N[C@@H](CC(C)C)C(=O)N[C@@H](Cc1ccc(C(F)(F)F)cc1)C(=O)N[C@@H](CCCCN)C(=O)N[C@@H](CC(C)C)C(=O)N[C@@H](CCCCN)C(=O)N[C@@H](Cc1ccc(C(F)(F)F)cc1)C(=O)N[C@@H](CCCCN)C(=O)N[C@@H](CCCNC(=N)N)C(N)=O [LV-39] (Ac-RKLL[Phe(4-CF3)]KLK[Phe(4-CF3)]KR-NH2) | >1000 µg/mL | 8 µg/mL (≈ 4.84 µM)
15 | CC(=O)N[C@@H](CCCNC(=N)N)C(=O)N[C@@H](CCCCN)C(=O)N[C@@H](CC(C)C)C(=O)N[C@@H](CC(C)C)C(=O)N[C@@H](Cc1ccc(C)cc1)C(=O)N[C@@H](CCCCN)C(=O)N[C@@H](CC(C)C)C(=O)N[C@@H](CCCCN)C(=O)N[C@@H](Cc1ccc(C)cc1)C(=O)N[C@@H](CCCCN)C(=O)N[C@@H](CCCNC(=N)N)C(N)=O [LV-41] (Ac-RKLL[Phe(4-Me)]KLK[Phe(4-Me)]KR-NH2) | >1000 µg/mL | 4 µg/mL (≈ 2.59 µM)
16 | CC(=O)N[C@@H](CCCNC(=N)N)C(=O)N[C@@H](CCCCN)C(=O)N[C@H](C(=O)N[C@H](C(=O)N[C@@H](Cc1ccc2ccccc2c1)C(=O)N[C@@H](CCCNC(=N)N)C(=O)N[C@H](C(=O)N[C@@H](CCCCN)C(=O)N[C@@H](Cc1ccc2ccccc2c1)C(=O)N[C@@H](CCCNC(=N)N)C(=O)N[C@@H](CCCCN)C(N)=O)C(C)C)C(C)C)C(C)C [LV-46] (Ac-RKVV[2Nal]RVK[2Nal]RK-NH2) | >1000 µg/mL | 4 µg/mL (≈ 2.49 µM)

Source: patent US20250304620A1, “ANTIMICROBIAL PEPTIDE AND APPLICATION THEREOF” (priority 2023, published 2025)
